Experiment [1] has as its system SK-MEL-147 cells. As to the kind of experiment: Transwell invasion assay. In kind it is cell-based, human. As to the method: SK-MEL-147 cells were seeded at 400,000 cells/well in six-well plates and allowed to adhere in the incubator overnight. Cells were pretreated with drugs ranging from 200–0.01 μM, and incubated for 48 h. Subsequently, 8.0 μm PET membrane cell culture inserts (Falcon) were coated with 40 μL of 0.3 mg/mL Matrigel (Corning) diluted in serum-free media and incubated at 37 °C/5% CO2 for 5 h to allow the solution to gel. Unbound Matrigel was removed from the inserts, and membranes were rehydrated with serum-containing media for an additional hour. Treated cells were then trypsinized, collected by centrifugation, washed with DPBS, and resuspended in serum-free media. About 50,000 cells per treatment group were seeded into upper chambers with additional serum-free media. 10% FBS-containing media was placed into bottom chambers as a chemoattractant. After 24 h, inserts were then stained with crystal violet (Sigma-Aldrich) and washed with DPBS. Using an ECHO Revolve microscope, bright field images of 6 fields of view for each insert were taken at 10x magnification. The number of invaded cells in each image was quantified using ImageJ (version 1.52a). Bar graphs, dose-response curves, and IC50 values were established using GraphPad Prism (version 10.3.1), reporting the mean number of invaded cells relative to DMSO ± SD.
Transwell invasion assay. Representative brightfield images of invaded SK -MEL- 147 cells on transwell inserts at 10X magnification following peptide treatment. Images show invaded cells after treatment with various concentrations of 2020 (top panel), 2012 (middle panel), and defactinib (bottom panel), in addition to DMSO vehicle-control (left, top panel) and ad- FRNK positive control (left, bottom panel). Bar graphs reveal m ean number of invaded cells ± SD and calculated IC50 values across all dos e s of 2020 (left graph, n=2), 2012 (middle graph, n=6), and defactinib (right graph, n=4 ). All values for ‘n’ represent independent biological replicates. One -way ANOVA analyses and Dunnet’s multiple comparison tests were performed

A further experiment relates to ONDA7 cells. As to the kind of experiment: cells. As to conditions: 96 h. In kind it is cell-based, human. The method, then: (§1) Cells were seeded at 1000 cells per well in white-walled, clear bottom 96-well plates and allowed to adhere in the incubator for 24 h. […] Treatment doses were created in a 12-or 10-point, twofold serial dilution, starting at 200 μM. After 24 h of treatment, 10% FBS was spiked back into each well and the plate returned to 37 °C […]. After 96 h of drug treatment, the Promega 2D CellTiter-Glo reagent was added to each well at a 1:2 ratio of reagent to treatment media. […] This assay was performed a minimum of 3 (n = 3) times for each cell line, with each run containing a minimum of 3 technical replicates per run. IC50 curves were generated using GraphPad Prism (version 10.3.1), reporting the mean % viability relative to DMSO ± SD.

In experiment [2] the test system is SK-MEL-147 cells. The experiment can be described thus: cells. In kind it is cell-based, human. As to conditions: 96 h. The method, then:
as §1

The next experiment concerns WM88 cells. The experiment can be described thus: cells. In kind it is cell-based, human. As to conditions: 96 h. As to the method:
as §1

For the next experiment, the system named is Hep-G2 cells. As to the kind of experiment: cells. As to conditions: 96 h. In kind it is cell-based, human. As to the method:
as §1

Another experiment has as its system NHEM cells. The experiment can be described thus: cells. In kind it is cell-based, human. Particulars: 96 h. As to the method: as §1
The subject of the next experiment is LX-2 cells. The experiment can be described thus: cells. Particulars: 96 h. In kind it is cell-based, human. The method, then: as §1
For experiment [3], the target named is 97 kinases (kinase named in endpoint) (Homo sapiens, UniProt P27361). The experiment can be described thus: Eurofins KINOMEscan profiling, 97 kinases. As to conditions: read-out: % Ctrl, ERK1.
Description: (§2) This experiment was performed by Eurofins KINOMEscan™ Profiling Service. […] The lysates were centrifuged and filtered, the remaining kinases were produced in HEK-293 cells and subsequently tagged with DNA for qPCR detection. […] The liganded beads were blocked with excess biotin and washed with blocking buffer (SeaBlock (Pierce), 1% BSA, 0.05% Tween-20, 1 mM DTT). […] Test compounds were prepared as 100x stocks in 100% DMSO and directly diluted into the assay. All reactions were performed in polypropylene 384-well plates in a final volume of 0.02 ml. […] The kinase concentration in the eluates was measured by qPCR.
(§3) (negative control signal - positive control signal)] x 100. ( b) AccompanyingSelectivity Scores or S -scores
(§4) which are quantitative measures of compound selectivity. They are calculated by dividing the number of
(§5) kinases that compounds bind to by the total number of distinct kinases tested, excluding mutant variants.
(§6) S(35)= ( num ber of non -mutant kinases with %Ctrl <35)/(number of non- mutant kinases tested)], S(10)=
(§7) non- mutant kinases with %Ctrl <1)/(number of non- mutant kinases tested)].
Experiment [4] concerns the target 97 kinases (kinase named in endpoint) (Homo sapiens, UniProt P45983). The experiment can be described thus: Eurofins KINOMEscan profiling, 97 kinases. Particulars: read-out: % Ctrl, JNK1.
Description: as §2, §3, §4, §5, §6, §7
Experiment [5] addresses 97 kinases (kinase named in endpoint) (Homo sapiens, UniProt Q9H093). As to the kind of experiment: Eurofins KINOMEscan profiling, 97 kinases. As to conditions: read-out: % Ctrl, SNARK.
Description: as §2, §3, §4, §5, §6, §7
The target in experiment [6] is 97 kinases (kinase named in endpoint) (Homo sapiens, UniProt P50613). As to the kind of experiment: Eurofins KINOMEscan profiling, 97 kinases. As to conditions: read-out: % Ctrl, CDK7.
Description: as §2, §3, §4, §5, §6, §7
For experiment [7], the target named is 97 kinases (kinase named in endpoint) (Homo sapiens, UniProt P45984). As to the kind of experiment: Eurofins KINOMEscan profiling, 97 kinases. Particulars: read-out: % Ctrl, JNK2.
Description: as §2, §3, §4, §5, §6, §7
For experiment [8], the target named is 97 kinases (kinase named in endpoint) (Homo sapiens, UniProt P15056, V600E). The experiment can be described thus: Eurofins KINOMEscan profiling, 97 kinases. Particulars: read-out: % Ctrl, BRAF(V600E).
Description: as §2, §3, §4, §5, §6, §7
Experiment [9] has as its target 97 kinases (kinase named in endpoint) (Homo sapiens, UniProt P11309). The experiment can be described thus: Eurofins KINOMEscan profiling, 97 kinases. Particulars: read-out: % Ctrl, PIM1.
Description: as §2, §3, §4, §5, §6, §7
In experiment [10] the target is 97 kinases (kinase named in endpoint) (Homo sapiens, UniProt Q9H4B4). The experiment can be described thus: Eurofins KINOMEscan profiling, 97 kinases. Particulars: read-out: % Ctrl, PLK3.
Description: as §2, §3, §4, §5, §6, §7
The target in experiment [11] is 97 kinases (kinase named in endpoint) (Homo sapiens, UniProt Q8IYT8). The experiment can be described thus: Eurofins KINOMEscan profiling, 97 kinases. Particulars: read-out: % Ctrl, ULK2.
Description: as §2, §3, §4, §5, §6, §7
Experiment [12] concerns SK-MEL-147 cells. As to the kind of experiment: RealTime-Glo Annexin V apoptosis assay. In kind it is cell-based, human. As to conditions: for induction of apoptosis, time-course: every 24 h over 96 h. As to the method:
SK-MEL-147 cells were seeded at 1000 cells/well in 384-well white-walled, clear-bottom plates (Corning). Cells were allowed to adhere overnight. Serial twofold dilutions of drugs were prepared starting at 200 μM. Immediately after adding the drug treatments, 2X RealTime-Glo™ Annexin V Apoptosis detection reagent (Promega) was added. Replicates were also included for the following controls: “no-cell” (negative), vehicle-only controls (negative), and cisplatin (5 μM, positive). […] Dose-response curves and EC50 curves were obtained using GraphPad Prism (version 10.3.1), reporting mean luminescence relative to DMSO ± SD. A minimum of 5 independent biological runs (n = 5) were performed per treatment group. […]
manner via Annexin V apopt osi s ti me -course study. SK -MEL- 147 cells treated with ( a) 2012, (b) 2 0 20, and (c) defactinib are evaluated for apoptosis using RealTime- Glo system for Annexin V binding. EC50 curves representing data obtained every 24 hours, over the course of 96 hours total. EC50 cur ves f it us i ng GraphPad Prism reporting mean ± SD of (a) 7 biological replicates (n=7); (b) 5 biological replicates (n =5); and (c) 5 biological replicates (n =5). Source data are provided as Source Data files.

Where [13] appears, read: Homo sapiens, average of n >= 3, read-out: cell viability IC50.

Where two headings read alike, the source gives them in different places. Bridge positions count the residues as written; N and C are the ends. Square brackets hold non-standard residues; d marks the D form. Peptide text beside a SMILES is read from it. * marks the point of attachment. Myristoyl = CCCCCCCCCCCCCC(=O)*; R8 = C=CCCCCCC[C@@](C)(N)C(=O)O; S5 = C=CCCC[C@](C)(N)C(=O)O Some results are limits rather than exact numbers.

97 kinases (kinase named in endpoint) (Homo sapiens, UniProt Q8IYT8), sequence (Q8IYT8 whole entry): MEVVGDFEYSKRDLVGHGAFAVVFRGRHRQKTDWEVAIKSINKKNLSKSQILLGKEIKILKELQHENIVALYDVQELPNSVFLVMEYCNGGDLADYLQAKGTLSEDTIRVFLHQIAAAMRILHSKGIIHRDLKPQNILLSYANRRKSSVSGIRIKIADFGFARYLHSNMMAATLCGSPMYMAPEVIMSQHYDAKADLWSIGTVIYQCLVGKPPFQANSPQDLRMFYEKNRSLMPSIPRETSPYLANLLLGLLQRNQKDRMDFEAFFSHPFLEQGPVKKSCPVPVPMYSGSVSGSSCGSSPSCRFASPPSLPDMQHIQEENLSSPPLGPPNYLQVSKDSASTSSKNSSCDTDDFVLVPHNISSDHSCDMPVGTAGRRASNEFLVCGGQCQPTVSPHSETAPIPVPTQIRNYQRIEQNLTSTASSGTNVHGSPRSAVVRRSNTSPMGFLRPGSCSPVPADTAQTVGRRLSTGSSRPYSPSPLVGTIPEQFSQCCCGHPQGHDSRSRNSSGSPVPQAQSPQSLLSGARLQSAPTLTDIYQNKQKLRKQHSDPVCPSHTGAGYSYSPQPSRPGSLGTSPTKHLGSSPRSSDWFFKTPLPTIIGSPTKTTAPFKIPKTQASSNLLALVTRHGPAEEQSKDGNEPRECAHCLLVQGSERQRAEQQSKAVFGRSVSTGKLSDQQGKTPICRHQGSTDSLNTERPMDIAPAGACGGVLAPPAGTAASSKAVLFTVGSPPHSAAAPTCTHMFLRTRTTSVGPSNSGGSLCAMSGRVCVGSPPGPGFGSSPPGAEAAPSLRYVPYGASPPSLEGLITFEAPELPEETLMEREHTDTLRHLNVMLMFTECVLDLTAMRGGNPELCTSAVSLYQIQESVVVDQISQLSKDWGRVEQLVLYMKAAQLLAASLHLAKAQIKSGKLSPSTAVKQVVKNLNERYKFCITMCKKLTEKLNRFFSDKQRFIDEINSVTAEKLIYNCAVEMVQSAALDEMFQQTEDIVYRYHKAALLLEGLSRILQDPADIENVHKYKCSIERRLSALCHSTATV
97 kinases (kinase named in endpoint) (Homo sapiens, UniProt Q9H093), sequence (Q9H093 whole entry): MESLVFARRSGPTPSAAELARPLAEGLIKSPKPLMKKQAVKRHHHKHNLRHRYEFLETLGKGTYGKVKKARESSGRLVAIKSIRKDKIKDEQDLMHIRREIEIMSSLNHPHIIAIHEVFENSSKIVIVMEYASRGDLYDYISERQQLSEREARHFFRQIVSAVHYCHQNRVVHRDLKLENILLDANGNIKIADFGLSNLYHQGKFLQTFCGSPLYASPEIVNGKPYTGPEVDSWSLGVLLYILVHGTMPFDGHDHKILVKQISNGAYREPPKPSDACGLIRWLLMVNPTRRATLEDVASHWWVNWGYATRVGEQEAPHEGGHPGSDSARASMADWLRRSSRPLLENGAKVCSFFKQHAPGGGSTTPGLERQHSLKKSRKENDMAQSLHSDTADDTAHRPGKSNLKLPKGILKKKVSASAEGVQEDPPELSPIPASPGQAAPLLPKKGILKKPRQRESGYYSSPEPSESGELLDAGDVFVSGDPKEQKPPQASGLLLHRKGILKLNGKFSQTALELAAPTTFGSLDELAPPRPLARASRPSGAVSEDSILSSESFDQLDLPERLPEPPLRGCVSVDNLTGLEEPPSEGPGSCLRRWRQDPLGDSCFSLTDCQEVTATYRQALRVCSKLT
97 kinases (kinase named in endpoint) (Homo sapiens, UniProt P45984), sequence (P45984 whole entry): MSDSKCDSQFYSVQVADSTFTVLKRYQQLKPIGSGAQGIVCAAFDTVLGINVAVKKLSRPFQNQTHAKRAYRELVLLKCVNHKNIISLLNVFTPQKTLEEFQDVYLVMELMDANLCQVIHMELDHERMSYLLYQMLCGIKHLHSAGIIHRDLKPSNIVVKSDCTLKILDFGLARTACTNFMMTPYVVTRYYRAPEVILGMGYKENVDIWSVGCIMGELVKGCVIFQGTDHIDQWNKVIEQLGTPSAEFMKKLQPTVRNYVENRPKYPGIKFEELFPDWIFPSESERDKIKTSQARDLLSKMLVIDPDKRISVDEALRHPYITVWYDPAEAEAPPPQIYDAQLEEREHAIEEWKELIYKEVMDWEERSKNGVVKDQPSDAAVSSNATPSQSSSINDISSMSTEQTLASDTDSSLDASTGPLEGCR
97 kinases (kinase named in endpoint) (Homo sapiens, UniProt P15056, V600E), sequence (P15056 whole entry V600E): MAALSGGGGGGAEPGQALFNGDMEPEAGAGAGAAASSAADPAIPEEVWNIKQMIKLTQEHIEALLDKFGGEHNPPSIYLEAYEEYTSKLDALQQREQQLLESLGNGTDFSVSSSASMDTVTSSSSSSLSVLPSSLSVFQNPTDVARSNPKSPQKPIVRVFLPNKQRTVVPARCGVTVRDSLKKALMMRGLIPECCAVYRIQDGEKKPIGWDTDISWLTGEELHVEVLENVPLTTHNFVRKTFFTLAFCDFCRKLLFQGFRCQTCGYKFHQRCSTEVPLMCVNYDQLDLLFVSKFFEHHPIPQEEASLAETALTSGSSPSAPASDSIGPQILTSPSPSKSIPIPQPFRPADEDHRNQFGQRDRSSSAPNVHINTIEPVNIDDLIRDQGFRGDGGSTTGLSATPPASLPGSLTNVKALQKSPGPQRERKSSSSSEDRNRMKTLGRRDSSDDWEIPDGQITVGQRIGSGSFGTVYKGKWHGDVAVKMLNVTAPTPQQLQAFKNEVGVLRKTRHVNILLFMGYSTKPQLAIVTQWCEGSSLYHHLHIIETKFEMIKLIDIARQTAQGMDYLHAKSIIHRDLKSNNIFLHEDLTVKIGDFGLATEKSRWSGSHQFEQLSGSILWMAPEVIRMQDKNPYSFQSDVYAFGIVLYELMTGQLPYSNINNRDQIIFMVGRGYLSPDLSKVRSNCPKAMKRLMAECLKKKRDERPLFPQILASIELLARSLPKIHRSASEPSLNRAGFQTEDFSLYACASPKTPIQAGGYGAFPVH
97 kinases (kinase named in endpoint) (Homo sapiens, UniProt Q9H4B4), sequence (Q9H4B4 whole entry): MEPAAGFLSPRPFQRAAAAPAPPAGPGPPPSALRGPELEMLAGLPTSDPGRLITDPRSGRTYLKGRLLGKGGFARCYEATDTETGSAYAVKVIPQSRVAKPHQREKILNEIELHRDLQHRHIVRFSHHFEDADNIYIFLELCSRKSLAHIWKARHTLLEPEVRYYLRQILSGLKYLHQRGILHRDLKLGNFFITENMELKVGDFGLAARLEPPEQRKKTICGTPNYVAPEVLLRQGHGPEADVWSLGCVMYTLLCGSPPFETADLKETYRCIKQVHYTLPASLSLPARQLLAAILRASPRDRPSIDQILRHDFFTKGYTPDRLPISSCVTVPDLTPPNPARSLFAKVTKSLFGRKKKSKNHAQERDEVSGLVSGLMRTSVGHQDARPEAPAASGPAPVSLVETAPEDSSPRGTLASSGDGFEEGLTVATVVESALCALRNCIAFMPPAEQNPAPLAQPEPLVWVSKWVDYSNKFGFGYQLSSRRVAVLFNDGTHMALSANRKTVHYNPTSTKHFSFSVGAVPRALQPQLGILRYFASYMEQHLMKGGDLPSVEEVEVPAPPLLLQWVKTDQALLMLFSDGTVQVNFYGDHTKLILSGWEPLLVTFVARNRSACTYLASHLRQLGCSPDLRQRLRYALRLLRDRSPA
97 kinases (kinase named in endpoint) (Homo sapiens, UniProt P11309), sequence (P11309 whole entry): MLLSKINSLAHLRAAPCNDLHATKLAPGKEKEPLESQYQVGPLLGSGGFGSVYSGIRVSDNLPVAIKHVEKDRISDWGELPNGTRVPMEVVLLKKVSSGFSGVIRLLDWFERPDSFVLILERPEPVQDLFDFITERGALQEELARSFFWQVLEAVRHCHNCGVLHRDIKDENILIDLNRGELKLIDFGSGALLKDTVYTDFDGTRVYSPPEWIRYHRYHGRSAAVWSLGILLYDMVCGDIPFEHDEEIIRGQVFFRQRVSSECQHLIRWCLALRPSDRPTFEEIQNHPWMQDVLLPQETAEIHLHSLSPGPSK
97 kinases (kinase named in endpoint) (Homo sapiens, UniProt P45983), sequence (P45983 whole entry): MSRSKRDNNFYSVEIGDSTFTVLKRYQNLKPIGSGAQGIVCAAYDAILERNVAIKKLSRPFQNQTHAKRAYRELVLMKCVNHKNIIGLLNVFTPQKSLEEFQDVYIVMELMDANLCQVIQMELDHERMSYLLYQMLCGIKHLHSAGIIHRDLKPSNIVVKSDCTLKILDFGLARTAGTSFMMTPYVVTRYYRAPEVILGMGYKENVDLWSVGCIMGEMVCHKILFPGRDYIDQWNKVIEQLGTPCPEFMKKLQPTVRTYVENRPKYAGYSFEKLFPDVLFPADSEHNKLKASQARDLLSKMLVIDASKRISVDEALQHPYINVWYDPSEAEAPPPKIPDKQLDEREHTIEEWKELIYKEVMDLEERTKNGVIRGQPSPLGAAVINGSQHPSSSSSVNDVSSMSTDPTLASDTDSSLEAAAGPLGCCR
97 kinases (kinase named in endpoint) (Homo sapiens, UniProt P50613), sequence (P50613 whole entry): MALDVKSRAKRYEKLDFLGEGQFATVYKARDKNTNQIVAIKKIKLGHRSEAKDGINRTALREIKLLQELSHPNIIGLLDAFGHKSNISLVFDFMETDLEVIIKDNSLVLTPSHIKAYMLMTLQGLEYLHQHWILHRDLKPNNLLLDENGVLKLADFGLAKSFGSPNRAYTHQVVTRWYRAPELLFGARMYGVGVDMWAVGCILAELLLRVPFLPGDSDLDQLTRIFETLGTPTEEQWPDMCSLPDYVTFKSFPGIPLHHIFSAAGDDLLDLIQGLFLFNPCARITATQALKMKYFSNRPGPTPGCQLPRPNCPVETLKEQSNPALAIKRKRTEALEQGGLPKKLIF
97 kinases (kinase named in endpoint) (Homo sapiens, UniProt P27361), sequence (P27361 whole entry): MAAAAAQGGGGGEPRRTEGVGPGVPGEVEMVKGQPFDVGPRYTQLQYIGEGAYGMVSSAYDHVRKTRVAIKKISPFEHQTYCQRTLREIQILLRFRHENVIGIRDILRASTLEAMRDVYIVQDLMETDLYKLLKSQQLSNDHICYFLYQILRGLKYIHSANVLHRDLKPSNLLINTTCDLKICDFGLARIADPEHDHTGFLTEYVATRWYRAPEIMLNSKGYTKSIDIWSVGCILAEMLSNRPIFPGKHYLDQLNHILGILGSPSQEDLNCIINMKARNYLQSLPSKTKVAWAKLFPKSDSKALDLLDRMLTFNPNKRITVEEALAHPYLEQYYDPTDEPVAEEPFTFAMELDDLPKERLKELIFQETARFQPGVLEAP

Regarding `CCCCCCCCCCCCCC(=O)N[C@@H](CC(N)=O)C(=O)N[C@@H](CC(C)C)C(=O)N[C@]1(C)CCCCCCC=CCCC[C@@](C)(C(=O)N[C@@H](CCC(=O)O)C(=O)N[C@@H](CC(C)C)C(=O)N[C@@H](CC(N)=O)C(N)=O)NC(=O)[C@H](CC(C)C)NC(=O)[C@H](CC(C)C)NC(=O)[C@H](CCCNC(=N)N)NC(=O)[C@H](CC(=O)O)NC(=O)[C@H](CC(C)C)NC(=O)[C@H](CCC(=O)O)NC1=O` [compound 2012], the IC50 in the experiment with SK-MEL-147 cells [1] (48 h treatment) was 1800 nM; in the experiment on ONDA7 cells, 9.79 µM; with SK-MEL-147 cells [2], 2360 nM; in the experiment with WM88 cells it was 4.42 µM; in the experiment on Hep-G2 cells, greater than 200 µM; in the experiment on NHEM cells, greater than 200 µM. The molecule further gave an IC50 in the experiment with LX-2 cells greater than 200 µM. Also, the remaining binding at 1 µM in experiment [3] was 100%; in experiment [4], 97%; in experiment [5] it was 100%; in experiment [6], 69%; in [7], 100%; in experiment [8] it was 100%. The values for the remaining binding at 1 µM in [9], in experiment [10] and in [11] were 100%, 94% and 100%, respectively. The molecule further came in with an EC50 with SK-MEL-147 cells [12] (96 h) of 8.3 µM.

Take `CCCCCCCCCCCCCC(=O)N[C@@H](CC(N)=O)C(=O)N[C@@H](CC(C)C)C(=O)N[C@]1(C)CCCCCCC=CCCC[C@@](C)(C(=O)N[C@@H](CCC(=O)O)C(=O)N[C@@H](CCC(=O)O)C(=O)N[C@@H](CC(N)=O)C(N)=O)NC(=O)[C@H](CC(C)C)NC(=O)[C@H](CC(C)C)NC(=O)[C@H](CCCNC(=N)N)NC(=O)[C@H](CC(=O)O)NC(=O)[C@H](CCC(=O)O)NC(=O)[C@H](CCC(=O)O)NC1=O` [compound 2020] (Myristoyl-NL[R8]EEDRLL[S5]EEN-NH2; staple 3-10): the “invasion IC50” value with SK-MEL-147 cells [1] (48 h treatment) is listed as “no effect”. In addition, the IC50 with ONDA7 cells is greater than 200 µM; in the experiment on SK-MEL-147 cells [2], greater than 200000 nM; in the experiment on WM88 cells it was greater than 200 µM; in the experiment on Hep-G2 cells, greater than 200 µM; in the experiment with NHEM cells, greater than 200 µM; with LX-2 cells, greater than 200 µM. For the same molecule, the “induction of apoptosis, time-course” value with SK-MEL-147 cells [12] was “no effect at any timepoint”.

For `CNC(=O)c1ccc(Nc2ncc(C(F)(F)F)c(NCc3nccnc3N(C)S(C)(=O)=O)n2)cc1` [defactinib], in the experiment with SK-MEL-147 cells [1] (2.5 µM), the “percentage of invaded cells” value came to 0%. Besides, the IC50 with ONDA7 cells (setting [13]) is 18.9 µM; with SK-MEL-147 cells [2] (Homo sapiens, SK-MEL-147, average of n >= 3, read-out: cell viability IC50), 2840 nM; in the experiment on WM88 cells (setting [13]) it was 21.2 µM; in the experiment with Hep-G2 cells (Homo sapiens, HepG2, average of n >= 3, read-out: cell viability IC50) it was 67 µM; in the experiment with NHEM cells (setting [13]), greater than 200 µM; with LX-2 cells (Homo sapiens, LX-2, average of n >= 3, read-out: cell viability IC50) it was 2.19 µM. Moreover, the remaining binding at 1 µM in experiment [3] was determined as 88%; in experiment [4] it was 61%; in experiment [5] it was 13%; in experiment [6] it was 22%; in experiment [7] it was 52%; in experiment [8] it was 100%. Further, the remaining binding at 1 µM in [9] was found to be 73%; in [10] it was 28%; in experiment [11] it was 28%. In addition, the “Annexin V apoptosis EC50” value in the experiment on SK-MEL-147 cells [12] (96 h) is “did not exhibit a dose-dependent effect”. Also, the “induction of apoptosis, time-course” value in the experiment on SK-MEL-147 cells [12] was “no effect at any timepoint”.

These data come from article PMC11871066, “Structure-based discovery of hydrocarbon-stapled paxillin peptides that block FAK scaffolding in cancer” (Nature Communications, 2025).
